These are literature values, as cited in patent publication US11737981B2, “Cellulosic polymer nanoparticles and methods of forming them” (The Trustees of Princeton University, priority 2017, dated 2023).

≈ marks a conversion by molar mass, not a printed value.

Turning to `CCC(C)n1ncn(-c2ccc(N3CCN(c4ccc(OCC5COC(Cn6cncn6)(c6ccc(Cl)cc6Cl)O5)cc4)CC3)cc2)c1=O` (stereo not drawn) [Itraconazole], the solubility in water is roughly 9.6 mg/L (≈ 13.6 µM). For `CCCCN(CCCC)CC(O)c1cc(Cl)cc2c1-c1ccc(Cl)cc1/C2=C/c1ccc(Cl)cc1` (stereo not drawn) [Lumefantrine], the solubility in water result is given as “about 0.031 mg/L”. With artefenomel mesylate [OZ439 mesylate], the solubility in water entry is listed as “about 0.47 mg/L”.
